Measured values: paper PMC8467576, “Novel Ubiquitin Specific Protease-13 Inhibitors Alleviate Neurodegenerative Pathology” (Metabolites, 2021)

Tests used:
[1] = tested on: human alpha-synuclein; test: Human alpha-synuclein ELISA in transfected SH-SY5Y cells; format: cell-based; conditions: 5 h, at 1 mM and 100 µM
Description: Stably transfected human neuroblastoma SH-SY5Y cells with human wild-type alpha-synuclein were treated with 1 mM, 100 µM, 10 µM, 1 µM, 0.1 µM, 0.01 µM and 0.001 µM of each of BK50118-A, BK50118-B, BK50118-C, CL3-499, CL3-512 and CL3-514 dissolved in an equivalent volume of DMSO for 5 h. […] The other 5 compounds were also able to lower alpha-synuclein levels but with less potency (Figure 3H,I,K–M).
SH-SY5Y cells were transiently transfected for 24 h with human wild-type α-synuclein using Fugene HD transfection reagent (Promega, E2311, Madison, WI, USA) according to manufacturer’s protocol. Cells were treated with 1 mM, 0.1 mM, 0.01 mM, 1 µM, 0.1 µM, 0.01 µM and 0.001 µM of each novel compounds (BK50118-A, BK50118-B, BK50118-C, CL3-499, CL3-512 and CL3-514) dissolved in DMSO for 5 h. […] Cell viability was determined via lactate dehydrogenase assay on culture media (Thermofisher, 88954) and MTT assay on plated cells (Thermofisher, V13154). […]

[2] = tested on: tyrosine hydroxylase (TH); test: Tyrosine hydroxylase staining in striatum of TgA53T mice; format: in vivo, mouse; conditions: 40 mg/Kg I.P. daily for 7 days, vs DMSO
Description: To ascertain the mechanistic effects of BK50118-C on alpha-synuclein clearance, we performed immunostaining in striatum of TgA53T mice. […] We also performed the staining of tyrosine hydroxylase (TH) in the striatum of TgA53T mice. TH is the enzyme responsible for catalyzing the rate limiting step in synthesis of L-3,4-dihydroxyphenylalanine(L-DOPA) which is a precursor for dopamine (DA). Staining of TH will help to evaluate the status of DA producing neurons in the SN and their terminals in the striatum.
BK50118-C is one of novel small molecule inhibitors of USP13 synthesized in our laboratory. For BK50118-C treatment, approximately 15 months old (±1 month) male and female TgA53T mice were treated with intraperitoneal injection of vehicle (DMSO) or BK50118-C at the daily dosage of 10 mg/Kg or 40 mg/Kg for 7 days. Animals were age and sex-matched in their respective treatment cohorts. All animals were sacrificed after treatment. […]
Immunohistochemistry was performed on the 20 µm thick brain sections for evaluation of ubiquitination of alpha-synuclein. […] The optic densitometry of co-localization of ubiquitin with alpha-synuclein was measured using Image J. Tyrosine hydroxylase (TH) is the limiting enzyme in DA synthesis, so probing for TH+ neurons will help to evaluate the status of DA producing neurons in the SN and their terminals in the striatum. […]

[3] = tested on: SH-SY5Y human neuroblastoma cells; test: LDH and MTT cell viability assays; format: cell-based; conditions: 5 h, compared to DMSO or untreated controls
Description: BK50118-B and BK50118-C (Figure 2C,D) decreased cell viability near and above 100 μM compared to DMSO or untreated controls. CL3-499 (Figure 2G) decreased cell viability near and above 1 mM compared to DMSO or untreated controls.
SH-SY5Y cells were transiently transfected for 24 h with human wild-type α-synuclein using Fugene HD transfection reagent (Promega, E2311, Madison, WI, USA) according to manufacturer’s protocol. Cells were treated with 1 mM, 0.1 mM, 0.01 mM, 1 µM, 0.1 µM, 0.01 µM and 0.001 µM of each novel compounds (BK50118-A, BK50118-B, BK50118-C, CL3-499, CL3-512 and CL3-514) dissolved in DMSO for 5 h. Cells were then harvested on ice by removing culture medium and adding 0.2 mL 1x sodium-tris, EDTA, NP-40 (STEN) buffer (50 mM Tris (pH 7.6), 150 mM NaCl, 2 mM EDTA, 0.2 % NP-40, 0.2 % with Halt protease and phosphatase inhibitor solution (ThermoFisher, 78446). Cells were detached with a cell scraper and collected into centrifuge tubes and incubated at 4 °C for 30 min with agitation. Samples were stored at −80 °C and used for ELISA analyses. For cell viability assay, SHSY-5Y cells stably expressing human wild-type alpha-synuclein were treated with 1 mM, 0.1 mM, 0.01 mM, 1 µM, 0.1 µM, 0.01 µM and 0.001 µM of each novel compound (BK50118-A, BK50118-B, BK50118-C, CL3-499, CL3-512 and CL3-514) dissolved in DMSO for 5 h. Cell viability was determined via lactate dehydrogenase assay on culture media (Thermofisher, 88954) and MTT assay on plated cells (Thermofisher, V13154).

Fc1ccc2nccc(OCc3ccccc3)c2c1 [BK50118-C, 4-benzyloxy-6-fluoroquinoline]
alpha-synuclein levels (ELISA) [1]: almost complete alpha-synuclein clearance
tyrosine hydroxylase (TH) staining [2]: did not show any noticeable effects
concentration near and above which cell viability decreased [3]: ≥ 100 µM
